What was measured:
[1] = target: T1, HDAC 6 (Homo sapiens, UniProt Q9UBN7); assay: Caliper HDAC inhibitor profiling assay (microfluidic mobility-shift), HDAC 6; format: biochemical; details: 1 hour at room temperature, read-out: IC50 (μM) HDAC6
T1 sequence (Q9UBN7 1-1215): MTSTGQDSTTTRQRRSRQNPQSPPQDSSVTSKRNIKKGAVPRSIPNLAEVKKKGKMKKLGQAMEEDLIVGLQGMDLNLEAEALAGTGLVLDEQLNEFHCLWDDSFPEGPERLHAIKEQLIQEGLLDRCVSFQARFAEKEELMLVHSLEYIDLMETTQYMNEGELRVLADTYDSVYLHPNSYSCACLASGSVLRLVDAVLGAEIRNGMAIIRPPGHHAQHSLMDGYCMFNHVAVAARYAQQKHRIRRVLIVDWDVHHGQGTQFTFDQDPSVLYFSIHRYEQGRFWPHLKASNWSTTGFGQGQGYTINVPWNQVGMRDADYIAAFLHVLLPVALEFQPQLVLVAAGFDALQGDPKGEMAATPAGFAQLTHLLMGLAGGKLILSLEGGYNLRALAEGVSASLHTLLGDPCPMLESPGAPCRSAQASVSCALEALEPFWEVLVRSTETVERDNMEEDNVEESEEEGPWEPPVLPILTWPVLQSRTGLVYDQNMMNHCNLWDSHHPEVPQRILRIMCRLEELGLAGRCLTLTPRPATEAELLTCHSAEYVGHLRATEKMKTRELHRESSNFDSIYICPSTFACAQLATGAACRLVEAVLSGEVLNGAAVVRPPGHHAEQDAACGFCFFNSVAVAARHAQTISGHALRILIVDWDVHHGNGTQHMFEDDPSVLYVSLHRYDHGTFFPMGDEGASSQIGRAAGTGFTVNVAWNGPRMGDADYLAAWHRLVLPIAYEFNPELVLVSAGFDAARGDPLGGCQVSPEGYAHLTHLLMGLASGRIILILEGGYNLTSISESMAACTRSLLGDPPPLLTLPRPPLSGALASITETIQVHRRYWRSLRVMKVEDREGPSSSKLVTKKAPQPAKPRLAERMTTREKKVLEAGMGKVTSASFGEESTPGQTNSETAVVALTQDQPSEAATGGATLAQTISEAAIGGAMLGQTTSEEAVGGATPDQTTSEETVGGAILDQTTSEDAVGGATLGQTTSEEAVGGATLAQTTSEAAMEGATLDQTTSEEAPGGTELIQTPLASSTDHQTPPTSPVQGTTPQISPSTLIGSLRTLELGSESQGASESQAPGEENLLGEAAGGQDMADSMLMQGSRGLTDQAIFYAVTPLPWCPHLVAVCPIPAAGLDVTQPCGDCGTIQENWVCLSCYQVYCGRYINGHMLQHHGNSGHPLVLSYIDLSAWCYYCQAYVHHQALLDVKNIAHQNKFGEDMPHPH
Method: (§1) The activity of the compounds of the invention against HDAC 3 (Class I) and HDAC 6 (Class II) can be determined using the Caliper Life Sciences HDAC inhibitor profiling assay, which utilises microfluidic mobility-shift detection.
(§2) Reaction buffer: 25 mM Tris/Cl, pH 8.0, 137 mM NaCl, 2.7 mM KCl, 1 mM MgCl2, 0.1 mg/ml BSA (fatty acid free).
(§3) Stop Buffer: 100 mM HEPES, pH 7.5, 10 mM EDTA, 0.04% Brij-35, 0.25% CR-3, and 2.5 μM Trichostatin A.
(§4) Stopped reactions were assembled in microtiter plate wells by adding 1 μL of the inhibitor compound in DMSO, 15 μL 2× Enzyme, and 15 μL 2× peptide. The reactions were incubated for 1 hour at room temperature, stopped with the addition of 45 μL Stop Solution, and read on the LabChip EZ Reader®. The curves were fit with sigmoidal dose response algorithm using GraphPad Prism.

[2] = target: HDAC 3 (Homo sapiens, UniProt O15379); assay: Caliper HDAC inhibitor profiling assay (microfluidic mobility-shift), HDAC 3; format: biochemical; details: 1 hour at room temperature, read-out: IC50 (μM) HDAC3
Sequence of HDAC 3 (O15379 whole entry, species assumed): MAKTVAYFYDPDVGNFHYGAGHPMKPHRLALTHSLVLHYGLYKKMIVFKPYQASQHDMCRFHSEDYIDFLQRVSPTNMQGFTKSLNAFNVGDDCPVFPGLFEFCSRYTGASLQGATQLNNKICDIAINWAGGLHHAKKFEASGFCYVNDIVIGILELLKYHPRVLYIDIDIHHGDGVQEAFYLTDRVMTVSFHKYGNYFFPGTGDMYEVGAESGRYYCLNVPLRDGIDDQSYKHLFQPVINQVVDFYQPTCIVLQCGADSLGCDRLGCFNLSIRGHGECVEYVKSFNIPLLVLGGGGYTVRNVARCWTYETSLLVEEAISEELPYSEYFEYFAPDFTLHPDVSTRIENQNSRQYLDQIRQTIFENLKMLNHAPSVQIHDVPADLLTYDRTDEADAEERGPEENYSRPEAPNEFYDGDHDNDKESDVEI
Sequence of HDAC 3 (Q9Y618 395-489 partner limits assumed, species assumed): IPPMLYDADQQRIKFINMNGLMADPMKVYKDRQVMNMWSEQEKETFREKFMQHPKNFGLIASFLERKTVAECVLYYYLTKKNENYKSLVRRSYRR
Method: as §1, §2, §3, §4

SMILES	melting point	IC50 [1]	IC50 [2]
C=C1CN(Cc2ccc(C(=O)Nc3ccccc3N)cc2)C(=O)c2ccc(C(=O)NCCN)cc21 [Example 14, N-(2-Aminoethyl)-2-(4-{[(2-aminophenyl)amino]carbonyl}benzyl)-4-methylene-1-oxo-1,2,3,4-tetrahydroisoquinoline-6-carboxamide]	172 to 174 °C (dec.)	> 10 µM	0.23 µM
C=C1CN(Cc2ccc(C(=O)Nc3ccccc3N)cc2)C(CC(=O)OC)c2ccccc21 (stereo not drawn) [Example 3, Methyl [2-(4-{[(2-aminophenyl)amino]carbonyl}benzyl)-4-methylene-1,2,3,4-tetrahydroisoquinolin-1-yl]acetate]	151 to 153 °C	> 10 µM	0.98 µM
C=C1CN(Cc2ccc(C(=O)Nc3ccccc3N)cc2)C(CC(=O)N2CCCCC2)c2ccccc21 (stereo not drawn) [Example 2, N-(2-Aminophenyl)-4-{[4-methylene-1-(2-oxo-2-piperidin-1-ylethyl)-3,4-dihydroisoquinolin-2(1H)-yl]methyl}benzamide]	89 to 91 °C	> 10 µM	0.51 µM
C=C1CN(Cc2ccc(C(=O)Nc3ccccc3N)cc2)C(CC(=O)Nc2ccccc2N)c2ccccc21 (stereo not drawn) [Example 8, N-(2-Aminophenyl)-4-{[1-{2-[(2-aminophenyl)amino]-2-oxoethyl}-4-methylene-3,4-dihydroisoquinolin-2(1H)-yl]methyl}benzamide]	135 to 137 °C	> 10 µM	0.35 µM
C=C1CN(Cc2ccc(C(=O)Nc3ccccc3N)cc2)C(CC(=O)N2CCOCC2)c2ccccc21 (stereo not drawn) [Example 4]	99 to 101 °C	> 10 µM	0.26 µM
C=C1CN(Cc2ccc(C(=O)Nc3ccccc3N)cc2)C(CC(=O)NCCO)c2ccccc21 (stereo not drawn) [Example 10, N-(2-Aminophenyl)-4-{[1-{2-[(2-hydroxyethyl)amino]-2-oxoethyl}-4-methylene-3,4-dihydroisoquinolin-2(1H)-yl]methyl}-benzamide]	–	> 10 µM	0.67 µM

Further lines, results first:

melting point	IC50 [1]	IC50 [2]	SMILES
213 to 215 °C	> 10 µM	1.4 µM	C=C1CN(S(=O)(=O)c2ccc(C(=O)Nc3ccccc3N)cc2)C(CC#N)c2ccccc21 (stereo not drawn) [Example 15]
93 to 95 °C	> 10 µM	0.31 µM	C=C1CN(Cc2ccc(C(=O)Nc3ccccc3N)cc2)C(CC#N)c2ccccc21 (stereo not drawn) [Example 6, N-(2-Aminophenyl)-4-{[1-(cyanomethyl)-4-methylene-3,4-dihydroisoquinolin-2(1H)-yl]methyl}benzamide]
111 to 113 °C	> 10 µM	0.89 µM	C=C1CN(Cc2ccc(C(=O)Nc3ccccc3N)cc2)C(CC(=O)OCC)c2ccccc21 (stereo not drawn) [Example 1, Ethyl [2-(4-{[(2-aminophenyl)amino]carbonyl}benzyl)-4-methylene-1,2,3,4-tetrahydroisoquinolin-1-yl]acetate]
196 to 198 °C	> 10 µM	0.27 µM	C=C1CN(Cc2ccc(C(=O)Nc3ccccc3N)cc2)C(=O)c2ccc(C(=O)OC)cc21 [Example 13, Methyl 2-(4-{[(2-aminophenyl)amino]carbonyl}benzyl)-4-methylene-1-oxo-1,2,3,4-tetrahydroisoquinoline-6-carboxylate]
–	> 10 µM	2.7 µM	C=C1CN(Cc2ccc(C(=O)Nc3ccccc3N)cc2)C(CC(=O)c2ccccc2)c2ccccc21 (stereo not drawn) [Example 5, N-(2-Aminophenyl)-4-{[4-methylene-1-(2-oxo-2-phenylethyl)-3,4-dihydroisoquinolin-2(1H)-yl]methyl}benzamide]
–	> 10 µM	0.56 µM	C=C1CN(Cc2ccc(C(=O)Nc3ccccc3N)cc2)C(CC(=O)N2CCN(C)CC2)c2ccccc21 (stereo not drawn) [Example 11, N-(2-Aminophenyl)-4-{[4-methylene-1-[2-(4-methylpiperazin-1-yl)-2-oxoethyl]-3,4-dihydroisoquinolin-2(1H)-yl]methyl}benzamide]
